These results are taken from US12604893B2, “Compositions and methods for modulating microbiomes” (BOYCE THOMPSON INSTITUTE FOR PLANT RESEARCH, INC., priority 2019, dated 2026).

For data set [1], the system named is Aspergillus fumigatus. The data set is described as follows: Microbial metabolism of ascr #18. Type of data set: in vitro ADME. On the procedure: (§1) To identify which specific microbes from the soil are responsible for ascr #18 metabolism, the effect of ascr #18 on individual microbes was tested. Bacteria and fungi in the soil interact with nematodes in diverse ways (Lakshmanan, et al. (2014) Plant Physiol., 166:689-700; Knox, et al. (2004) Appl. Environ. Microbiol., 70:4666-4671; Siddiqui, et al. (1999) Bioresour. Technol., 69:167-179). Microbial metabolism of ascr #18 was assessed in three bacteria, E. coli, Agrobacterium tumefaciens, and P. syringae and two fungi, Aspergillus fumigatus and A. flavus, all of which are commonly found in soil. […] Whereas, like fungi, all tested plants and animals are capable of metabolizing ascr #18, it appears that bacteria (and perhaps other prokaryotes) lack this ability.

Data set [2] deals with Agrobacterium tumefaciens. The data set is described as follows: Microbial metabolism of ascr #18. Type of data set: in vitro ADME. On the procedure:
as §1

In data set [3] the test system is P. syringae. As to the kind of experiment: Microbial metabolism of ascr #18. Type of data set: in vitro ADME. As for the experimental part:
as §1

The test system of data set [4] is E. coli. As to the kind of experiment: Microbial metabolism of ascr #18. It counts as in vitro ADME. On the procedure:
as §1

Data set [5] deals with A. flavus. As to the kind of experiment: Microbial metabolism of ascr #18. Type of data set: in vitro ADME. As for the experimental part:
as §1

Data set [6] relates to P. syringae. The data set is described as follows: Bacterial growth assay, media supplemented with ascarosides. Type of data set: cell-based. The following applies: growth media supplemented with 1 and 10 nM; FIG. 1A. On the procedure: (§2) FIG. 1A provides a graph and images of P. syringae growth. Bacterial growth media were supplemented with different concentrations of ascarosides. Ten-fold serially diluted bacterial cells were plated and bacterial growth and quantification was performed 3 days post incubation. FIG. 1B provides images of B. subtilis growth. Bacterial growth media were supplemented with different concentrations of ascarosides. Ten-fold serially diluted bacterial cells were plated and bacterial growth and quantification was performed 18 hours post incubation. FIG. 1C provides a graph showing biofilm formation of S. marcescens in the presence of 1 nM of ascr #3, ascr #9, ascr #10, and ascr #18. *P<0.05, **P<0.001, two-tailed t-test. Bacterial growth and biofilm assays have been independently repeated at least three times.
(§3) To test whether bacteria respond to ascarosides, a simple growth assay was utilized. […] Enhanced growth and rhizosphere colonization of P. fluorescens has been observed in the presence of nematodes (Knox, et al. (2004) Appl. Environ. Microbiol., 70:4666-4671) and this may be due to ascr #18 excretion. Next, a wider selection of bacterial species from soil and human environments, including P. tabacum, P. fluorescens, S. marcescens, E. faecalis, and B. subtilis, was studied. […] In contrast to ascr #18, the effects of other ascarosides such as ascr #9, ascr #10, and ascr #3 were species-specific.

The subject of data set [7] is B. subtilis. Described as above. It counts as cell-based. The following applies: FIG. 1B. On the procedure:
as §2, §3

The subject of data set [8] is soil microbiome. The data set is described as follows: Soil samples treated with ascr #18, microbial DNA sequencing (16s rRNA, ITS). The following applies: low nanomolar concentrations, 24 hours; preliminary analyses. On the procedure:
(§4) To investigate whether ascarosides affect soil microbiomes, soil samples were collected from sites free from pesticide and fertilizer applications to ensure inclusion of a representative diversity of natural microbes (Panke-Buisse, et al. (2015) ISME J., 9:980-9; Lebeis, et al. (2015) Science 349:860-864). The soil samples were treated with low nanomolar concentrations of ascr #18 for 24 hours followed by microbial DNA and metabolome extraction. DNA sequencing was performed by targeting conserved 16s rRNA for bacteria and internal transcribed spacer (ITS) gene for fungi (Panke-Buisse, et al. (2015) ISME J., 9:980-9).

The test system of data set [9] is soil samples. As to the kind of experiment: Comparative metabolomics of soil samples treated with ascr #18. Type of data set: in vitro ADME. As for the experimental part:
as §4, §1

The test system of data set [10] is P. fluorescens. As to the kind of experiment: Bacterial growth assay, media supplemented with ascarosides. It counts as cell-based.
Description: as §3

Data set [11] relates to P. tabacum. The data set is described as above. It counts as cell-based.
Description: as §3

For data set [12], the system named is A. tumefaciens. Described as above. It counts as cell-based. The following applies: growth media supplemented with 1 and 10 nM.
Description: as §3

Data set [13] relates to S. marcescens. The data set is described as above. It counts as cell-based.
Description: as §3

Data set [14] has as its system E. coli. The data set is described as above. It counts as cell-based. The following applies: growth media supplemented with 1 and 10 nM.
Description: as §3

The test system of data set [15] is E. faecalis. Described as above. It counts as cell-based.
Description: as §3

With `CC1O[C@@H](O[C@@H](C)CCCCCCCCC(=O)O)C(O)C[C@H]1O` (stereo in doubt) [ascr #18, (10R)-(3′R,5′R-dihydroxy-6'S-methyl-(2H)-tetrahydropyran-2-yloxy)-undecanoic acid], in data set [1], the “metabolism of ascr #18 by Aspergillus fumigatus” value is “metabolized into shorter-chained ascarosides”. Moreover, the “metabolism of ascr #18 by Agrobacterium tumefaciens” value in data set [2] is reported as “none of the bacteria were able to metabolize”. Besides, the “metabolism of ascr #18 by P. syringae” value in [3] was “none of the bacteria were able to metabolize”. The “metabolism of ascr #18 by E. coli” value in data set [4] was “none of the bacteria were able to metabolize”. Moreover, in data set [5], the “metabolism of ascr #18 by A. flavus” value was “metabolized into shorter-chained ascarosides”. The “bacterial growth of P. syringae” value in data set [6] is “significant growth increase”. Also, in data set [7], the “bacterial growth of B. subtilis” value is “generally promoted growth”. In addition, the “effect on microbial composition of the soil” value in [8] is recorded as “shifts microbial composition of the soil”. For the same compound, the “metabolism of ascr #18 in soil samples” value in data set [9] is “extensively edited into shorter side-chained ascarosides”. In data set [10], the “bacterial growth of P. fluorescens” value was “generally promoted growth”. The “bacterial growth of P. tabacum” value in data set [11] is given as “generally promoted growth”. For the same compound, in [12], the “bacterial growth of A. tumefaciens” value is given as “not affected”. The “bacterial growth of S. marcescens” value in data set [13] is reported as “generally promoted growth”. In [14], the “bacterial growth of E. coli” value is “not affected”. In addition, the “bacterial growth of E. faecalis” value in [15] is recorded as “generally promoted growth”.

With `CC1O[C@@H](O[C@H](C)CCCC/C=C/C(=O)O)C(O)C[C@H]1O` (stereo partly drawn) [ascr #3], in data set [7], the “bacterial growth of B. subtilis” value was “suppressed”. Further, in [10], the “bacterial growth of P. fluorescens” value is given as “suppressed”. The “bacterial growth of S. marcescens” value in data set [13] is given as “promoted growth”.

`C[C@H](CCC(=O)O)O[C@@H]1O[C@@H](C)[C@H](O)C[C@H]1O` [ascr #9]: in data set [7], the “bacterial growth of B. subtilis” value is given as “suppressed”. Moreover, the “bacterial growth of P. fluorescens” value in data set [10] is “suppressed”. Further, the “bacterial growth of S. marcescens” value in [13] was “promoted growth”.

As to `CC1O[C@@H](O[C@H](C)CCCCCCC(=O)O)C(O)C[C@H]1O` (stereo partly drawn) [ascr #10], in [7], the “bacterial growth of B. subtilis” value is “suppressed”. The “bacterial growth of P. fluorescens” value in [10] is “suppressed”. The “bacterial growth of S. marcescens” value in [13] was “promoted growth”.
